Laboratory results as given in patent publication US20110245164A1 (INDIANA UNIVERSITY RESEARCH AND TECHNOLOGY, published 2011).
Non-standard residues stand in square brackets, D forms with d. Residues, ends and D or L forms follow the SMILES beside them. Groups on a side chain read outwards from the residue. *: point of attachment. Phe(4-NH2) = Nc1ccc(C[C@H](N)C(=O)O)cc1; X1 = CCCCCCN(CC(=O)*)C(=O)[C@H](N)CCCCN; Aib = CC(C)(N)C(=O)O; Sar = CNCC(=O)O

What was measured:
[1] = target: T1, Insulin Receptor (Homo sapiens, UniProt P06213); experiment: Insulin receptor phosphorylation assay (receptor transfected HEK293 cells); format: cell-based; design: expressed in transfected cells; host or cells: HEK293; conditions: Table 10; IGF-1 receptor EC50 versus insulin receptor EC50
T1 sequence (P06213 28-758 limits assumed): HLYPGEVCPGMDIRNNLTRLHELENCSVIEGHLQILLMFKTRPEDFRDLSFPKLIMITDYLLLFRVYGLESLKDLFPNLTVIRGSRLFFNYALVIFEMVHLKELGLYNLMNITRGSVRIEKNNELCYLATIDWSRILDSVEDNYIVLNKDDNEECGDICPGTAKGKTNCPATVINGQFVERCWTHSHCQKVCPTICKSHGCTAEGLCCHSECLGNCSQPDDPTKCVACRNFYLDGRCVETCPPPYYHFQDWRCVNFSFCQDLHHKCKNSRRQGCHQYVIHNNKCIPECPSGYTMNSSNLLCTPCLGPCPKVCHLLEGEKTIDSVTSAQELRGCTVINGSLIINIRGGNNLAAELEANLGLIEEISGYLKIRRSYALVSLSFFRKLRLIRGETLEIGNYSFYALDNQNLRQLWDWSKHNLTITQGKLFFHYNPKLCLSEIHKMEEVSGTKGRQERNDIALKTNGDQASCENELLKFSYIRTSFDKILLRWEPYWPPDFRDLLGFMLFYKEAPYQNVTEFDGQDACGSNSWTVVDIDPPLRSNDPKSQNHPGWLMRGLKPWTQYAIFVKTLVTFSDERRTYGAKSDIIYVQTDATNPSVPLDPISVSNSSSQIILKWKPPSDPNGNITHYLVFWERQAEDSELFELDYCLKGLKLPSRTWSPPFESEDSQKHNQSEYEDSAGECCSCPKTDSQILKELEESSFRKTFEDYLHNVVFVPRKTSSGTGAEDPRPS
T1 sequence (P06213 763-1382 partner limits assumed): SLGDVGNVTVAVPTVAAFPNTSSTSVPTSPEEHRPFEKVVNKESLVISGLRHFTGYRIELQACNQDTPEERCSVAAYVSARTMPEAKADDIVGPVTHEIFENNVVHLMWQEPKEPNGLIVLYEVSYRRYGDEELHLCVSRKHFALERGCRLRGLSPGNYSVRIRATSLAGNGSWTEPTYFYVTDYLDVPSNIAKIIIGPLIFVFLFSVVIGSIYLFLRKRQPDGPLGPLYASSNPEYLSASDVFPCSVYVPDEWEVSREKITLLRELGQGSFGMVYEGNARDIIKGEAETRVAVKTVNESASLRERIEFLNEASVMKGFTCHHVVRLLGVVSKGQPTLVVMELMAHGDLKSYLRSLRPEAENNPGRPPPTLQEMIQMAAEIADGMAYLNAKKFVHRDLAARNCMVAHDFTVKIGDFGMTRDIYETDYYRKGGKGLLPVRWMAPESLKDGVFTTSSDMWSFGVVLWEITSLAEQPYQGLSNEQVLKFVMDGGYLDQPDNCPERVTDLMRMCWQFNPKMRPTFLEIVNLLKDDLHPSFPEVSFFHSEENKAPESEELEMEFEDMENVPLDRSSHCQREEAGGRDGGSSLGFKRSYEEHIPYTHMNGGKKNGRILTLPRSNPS

[2] = Dipeptide half life on IGF1 dipeptide extended (p-NH2-F)A19 amide derivatives in PBS (HPLC); format: physicochemical
Description: IGF-1 peptides was measured to determine the impact of the peptide sequence or heteroduplex on the dipeptide cleavage.
Accordingly, the IGF1A chain alone was determined to be a good model for the study of pro-drug half life on IGF1 B:A (Y^B16L^B17) derivative peptides. […] For simplicity, prodrug half lives were determined using only the IGF1 A chain in the absence of the B chain. The half lives of each propeptide was determined as described in Example 5.
The IGF^B16B17 derivative peptide prodrugs were incubated in PBS, pH 7.4 at 37° C. and at predetermined time intervals an aliquot was taken and further degradation was quenched with 0.1% TFA and the aliquot was subjected to analytical HPLC analysis. Peaks a and b, representing the prodrug and active forms of the IGF^B16B17 derivative peptide were identified with LC-MS and quantified by integration of peak area an HPLC. FIGS. 9A-9C show the output of an HPLC analysis of the degradation of the IGF^B16B17 derivativepeptide prodrug: IGF1A(Ala)^6,7,11,20(Aib-Pro-pNH-F)^19. Aliquots were taken at 20 minutes (FIG. 9A), 81 minutes (FIG. 9B) and 120 minutes (FIG. 9C) after beginning the incubation of the prodrug in PBS.

[3] = target: T1, Insulin Receptor; experiment: Insulin receptor binding assay (competition, scintillation proximity); conditions: compared with native insulin

Row | SMILES | Selective Ratio [1] | Half Life ([2]; buffer) [h] | Half Life, PBS ([2]; buffer) [h] | other results
1 | CC[C@H](C)[C@H](NC(=O)CN)C(=O)N[C@H](C(=O)N[C@@H](CC(=O)O)C(=O)N[C@@H](CCC(=O)O)C(=O)N[C@H]1CSSC[C@@H]2NC(=O)[C@H](CO)NC(=O)[C@H](C)NC(=O)[C@H](Cc3c[nH]cn3)NC(=O)[C@H](CSSC[C@H](NC(=O)[C@H](CC(C)C)NC(=O)[C@H](Cc3c[nH]cn3)NC(=O)[C@H](CCC(=O)O)NC(=O)[C@@H]3CCCN3C(=O)CN)C(=O)NCC(=O)N[C@@H](C)C(=O)N[C@@H](CC(=O)O)C(=O)N[C@@H](CC(C)C)C(=O)N[C@@H](C(C)C)C(=O)N[C@@H](CC(=O)O)C(=O)N[C@@H](C)C(=O)N[C@@H](CC(C)C)C(=O)N[C@@H](Cc3ccc(O)cc3)C(=O)N[C@@H](CC(C)C)C(=O)N[C@@H](C(C)C)C(=O)N[C@H](C(=O)NCC(=O)N[C@@H](CC(=O)O)C(=O)N[C@@H](C)C(=O)NCC(=O)N[C@@H](Cc3ccccc3)C(=O)N[C@@H](Cc3ccc(O)cc3)C(N)=O)CSSC[C@@H](C(=O)N[C@@H](CC(N)=O)C(=O)O)NC(=O)[C@H](Cc3ccc(O)cc3)NC(=O)[C@H](CCSC)NC(=O)[C@H](CCC(=O)O)NC(=O)[C@H](CC(C)C)NC(=O)[C@H](CCCNC(=N)N)NC(=O)[C@H](CCCNC(=N)N)NC(=O)[C@H](CC(C)C)NC(=O)[C@H](CC(=O)O)NC2=O)NC1=O)C(C)C | 32.54 |  |  | 
2 | CC[C@H](C)[C@H](NC(=O)CN)C(=O)N[C@H](C(=O)N[C@@H](CC(=O)O)C(=O)N[C@@H](CCC(=O)O)C(=O)N[C@@H](C)C(=O)N[C@@H](C)C(=O)N[C@@H](Cc1ccccc1)C(=O)N[C@@H](CCCNC(=N)N)C(=O)N[C@@H](CO)C(=O)N[C@@H](C)C(=O)N[C@@H](CC(=O)O)C(=O)N[C@@H](CC(C)C)C(=O)N[C@@H](CCCNC(=N)N)C(=O)N[C@@H](CCCNC(=N)N)C(=O)N[C@@H](CC(C)C)C(=O)N[C@@H](CCC(=O)O)C(=O)N[C@@H](CCSC)C(=O)N[C@@H](Cc1ccc(NC(=O)[C@@H]2CCCN2C(=O)C(C)(C)N)cc1)C(=O)N[C@@H](C)C(=O)N[C@@H](C)C(N)=O)C(C)C [AiB Pro] (H-GIVDEAAFRSADLRRLEM[Phe(4-NH2)]([Pro-Aib])AA-NH2) |  | 2.2 | 2.2 | degradation of prodrug to active form (HPLC), in words ([2]; pH 7.4): spontaneous, non-enzymatic conversion
3 | CC[C@H](C)[C@H](NC(=O)CN)C(=O)N[C@H](C(=O)N[C@@H](CC(=O)O)C(=O)N[C@@H](CCC(=O)O)C(=O)N[C@@H](C)C(=O)N[C@@H](C)C(=O)N[C@@H](Cc1ccccc1)C(=O)N[C@@H](CCCNC(=N)N)C(=O)N[C@@H](CO)C(=O)N[C@@H](C)C(=O)N[C@@H](CC(=O)O)C(=O)N[C@@H](CC(C)C)C(=O)N[C@@H](CCCNC(=N)N)C(=O)N[C@@H](CCCNC(=N)N)C(=O)N[C@@H](CC(C)C)C(=O)N[C@@H](CCC(=O)O)C(=O)N[C@@H](CCSC)C(=O)N[C@@H](Cc1ccc(NC(=O)[C@H]2CCCN2C(=O)C(C)(C)N)cc1)C(=O)N[C@@H](C)C(=O)N[C@@H](C)C(N)=O)C(C)C [AiB dPro] (H-GIVDEAAFRSADLRRLEM[Phe(4-NH2)]([dP-Aib])AA-NH2) |  | 1.9 | 2.1 | 
4 | CC[C@H](C)[C@H](NC(=O)CNC(=O)[C@@H]1CCCN1C(=O)[C@H](C)N)C(=O)N[C@H](C(=O)N[C@@H](CC(=O)O)C(=O)N[C@@H](CCC(=O)O)C(=O)N[C@H]1CSSC[C@@H]2NC(=O)[C@H](CO)NC(=O)[C@H](CCCNC(=N)N)NC(=O)[C@H](Cc3ccccc3)NC(=O)[C@H](CSSC[C@H](NC(=O)[C@H](CC(C)C)NC(=O)[C@@H](NC(=O)[C@H](CCC(=O)O)NC(=O)[C@@H]3CCCN3C(=O)CN)[C@@H](C)O)C(=O)NCC(=O)N[C@@H](C)C(=O)N[C@@H](CCC(=O)O)C(=O)N[C@@H](CC(C)C)C(=O)N[C@@H](C(C)C)C(=O)N[C@@H](CC(=O)O)C(=O)N[C@@H](C)C(=O)N[C@@H](CC(C)C)C(=O)N[C@@H](Cc3ccc(O)cc3)C(=O)N[C@@H](CC(C)C)C(=O)N[C@@H](C(C)C)C(=O)N[C@H](C(=O)NCC(=O)N[C@@H](CC(=O)O)C(=O)N[C@@H](CCCNC(=N)N)C(=O)NCC(=O)N[C@@H](Cc3ccccc3)C(=O)N[C@@H](Cc3ccc(O)cc3)C(=O)N[C@@H](Cc3ccccc3)C(=O)N[C@@H](CC(N)=O)C(=O)N[C@@H](CCCCN)C(=O)N3CCC[C@H]3C(=O)N[C@H](C(N)=O)[C@@H](C)O)CSSC[C@@H](C(=O)N[C@@H](C)C(N)=O)NC(=O)[C@H](Cc3ccc(O)cc3)NC(=O)[C@H](CCSC)NC(=O)[C@H](CCC(=O)O)NC(=O)[C@H](CC(C)C)NC(=O)[C@H](CCCNC(=N)N)NC(=O)[C@H](CCCNC(=N)N)NC(=O)[C@H](CC(C)C)NC(=O)[C@H](CC(=O)O)NC2=O)NC1=O)C(C)C [IGF1(Y^B16L^B17)(AlaPro)^A-1,0] |  |  |  | insulin receptor binding, in words [3]: substantially reduced affinity for the insulin receptor
5 | CCCCCCN(CC(=O)Nc1ccc(C[C@H](NC(=O)[C@H](CCSC)NC(=O)[C@H](CCC(=O)O)NC(=O)[C@H](CC(C)C)NC(=O)[C@H](CCCNC(=N)N)NC(=O)[C@H](CCCNC(=N)N)NC(=O)[C@H](CC(C)C)NC(=O)[C@H](CC(=O)O)NC(=O)[C@H](C)NC(=O)[C@H](CO)NC(=O)[C@H](CCCNC(=N)N)NC(=O)[C@H](Cc2ccccc2)NC(=O)[C@H](C)NC(=O)[C@H](C)NC(=O)[C@H](CCC(=O)O)NC(=O)[C@H](CC(=O)O)NC(=O)[C@@H](NC(=O)[C@@H](NC(=O)CN)[C@@H](C)CC)C(C)C)C(=O)N[C@@H](C)C(=O)N[C@@H](C)C(N)=O)cc1)C(=O)[C@H](N)CCCCN [dK N-hexyl Gly] (H-GIVDEAAFRSADLRRLEM[Phe(4-NH2)](X1)AA-NH2; N-terminus assumed) |  |  |  | half-life ([2]; buffer, pH 7.4): 636 min

Now from value to molecule, other results behind:

Row | Selective Ratio [1] | Half Life ([2]; buffer) [h] | Half Life, PBS ([2]; buffer) [h] | SMILES | other results
6 | 2.81 |  |  | CC[C@H](C)[C@H](NC(=O)CN)C(=O)N[C@H](C(=O)N[C@@H](CC(=O)O)C(=O)N[C@@H](CCC(=O)O)C(=O)N[C@H]1CSSC[C@@H]2NC(=O)[C@H](CO)NC(=O)[C@H](C)NC(=O)[C@H](Cc3c[nH]cn3)NC(=O)[C@H](CSSC[C@H](NC(=O)[C@H](CC(C)C)NC(=O)[C@H](Cc3c[nH]cn3)NC(=O)[C@H](CCC(=O)O)NC(=O)[C@@H]3CCCN3C(=O)CN)C(=O)NCC(=O)N[C@@H](C)C(=O)N[C@@H](CC(=O)O)C(=O)N[C@@H](CC(C)C)C(=O)N[C@@H](C(C)C)C(=O)N[C@@H](CC(=O)O)C(=O)N[C@@H](C)C(=O)N[C@@H](CC(C)C)C(=O)N[C@@H](Cc3ccc(O)cc3)C(=O)N[C@@H](CC(C)C)C(=O)N[C@@H](C(C)C)C(=O)N[C@H](C(=O)NCC(=O)N[C@@H](CC(=O)O)C(=O)N[C@@H](CCCNC(=N)N)C(=O)NCC(=O)N[C@@H](Cc3ccccc3)C(=O)N[C@@H](Cc3ccc(O)cc3)C(N)=O)CSSC[C@@H](C(=O)N[C@@H](CC(N)=O)C(=O)O)NC(=O)[C@H](Cc3ccc(O)cc3)NC(=O)[C@H](CCSC)NC(=O)[C@H](CCC(=O)O)NC(=O)[C@H](CC(C)C)NC(=O)[C@H](CCCNC(=N)N)NC(=O)[C@H](CCCNC(=N)N)NC(=O)[C@H](CC(C)C)NC(=O)[C@H](CC(=O)O)NC2=O)NC1=O)C(C)C | 
7 | 9.75 |  |  | CC[C@H](C)[C@H](NC(=O)CN)C(=O)N[C@H](C(=O)N[C@@H](CC(=O)O)C(=O)N[C@@H](CCC(=O)O)C(=O)N[C@H]1CSSC[C@@H]2NC(=O)[C@H](CO)NC(=O)[C@H](CCCNC(=N)N)NC(=O)[C@H](Cc3ccccc3)NC(=O)[C@H](CSSC[C@H](NC(=O)[C@H](CC(C)C)NC(=O)[C@@H](NC(=O)[C@H](CCC(=O)O)NC(=O)[C@@H]3CCCN3C(=O)CN)[C@@H](C)O)C(=O)NCC(=O)N[C@@H](C)C(=O)N[C@@H](CC(=O)O)C(=O)N[C@@H](CC(C)C)C(=O)N[C@@H](C(C)C)C(=O)N[C@@H](CC(=O)O)C(=O)N[C@@H](C)C(=O)N[C@@H](CC(C)C)C(=O)N[C@@H](Cc3ccc(O)cc3)C(=O)N[C@@H](CC(C)C)C(=O)N[C@@H](C(C)C)C(=O)N[C@H](C(=O)NCC(=O)N[C@@H](CC(=O)O)C(=O)N[C@@H](CCCNC(=N)N)C(=O)NCC(=O)N[C@@H](Cc3ccccc3)C(=O)N[C@@H](Cc3ccc(O)cc3)C(N)=O)CSSC[C@@H](C(=O)N[C@@H](C)C(=O)O)NC(=O)[C@H](Cc3ccc(O)cc3)NC(=O)[C@H](CCSC)NC(=O)[C@H](CCC(=O)O)NC(=O)[C@H](CC(C)C)NC(=O)[C@H](CCCNC(=N)N)NC(=O)[C@H](CCCNC(=N)N)NC(=O)[C@H](CC(C)C)NC(=O)[C@H](CC(=O)O)NC2=O)NC1=O)C(C)C [IGF-1 A:B(D10Y16L17) DPI A-COOH] | 
8 |  | 21.8 | 21.8 | CC[C@H](C)[C@H](NC(=O)CN)C(=O)N[C@H](C(=O)N[C@@H](CC(=O)O)C(=O)N[C@@H](CCC(=O)O)C(=O)N[C@@H](C)C(=O)N[C@@H](C)C(=O)N[C@@H](Cc1ccccc1)C(=O)N[C@@H](CCCNC(=N)N)C(=O)N[C@@H](CO)C(=O)N[C@@H](C)C(=O)N[C@@H](CC(=O)O)C(=O)N[C@@H](CC(C)C)C(=O)N[C@@H](CCCNC(=N)N)C(=O)N[C@@H](CCCNC(=N)N)C(=O)N[C@@H](CC(C)C)C(=O)N[C@@H](CCC(=O)O)C(=O)N[C@@H](CCSC)C(=O)N[C@@H](Cc1ccc(NC(=O)CN(C)C(=O)[C@@H](N)CCCCN)cc1)C(=O)N[C@@H](C)C(=O)N[C@@H](C)C(N)=O)C(C)C [K Sar] (H-GIVDEAAFRSADLRRLEM[Phe(4-NH2)]([Sar-Lys])AA-NH2) | 
